Results published in ChEMBL document CHEMBL1134432 (Bioorg Med Chem Lett, 2001).

Assays:
[1] = target: T1, 5-hydroxytryptamine receptor 1A (Homo sapiens, UniProt P08908); assay: Binding affinity towards human 5-hydroxytryptamine 1A receptor was determined using [3H]8-OH-DPAT-as radioligand
T1 sequence (P08908 whole entry): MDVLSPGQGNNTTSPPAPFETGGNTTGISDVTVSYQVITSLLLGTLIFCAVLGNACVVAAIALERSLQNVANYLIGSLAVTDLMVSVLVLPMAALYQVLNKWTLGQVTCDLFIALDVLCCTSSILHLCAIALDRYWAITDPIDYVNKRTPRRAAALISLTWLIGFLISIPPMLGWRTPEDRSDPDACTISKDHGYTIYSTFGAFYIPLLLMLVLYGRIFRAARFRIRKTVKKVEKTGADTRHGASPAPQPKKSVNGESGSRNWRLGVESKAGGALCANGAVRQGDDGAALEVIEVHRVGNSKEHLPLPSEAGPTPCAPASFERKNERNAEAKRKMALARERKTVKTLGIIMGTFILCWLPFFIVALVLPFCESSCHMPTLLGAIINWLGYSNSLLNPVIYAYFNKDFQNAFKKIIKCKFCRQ

[2] = target: 5-hydroxytryptamine receptor 2A (Rattus norvegicus, UniProt P14842); assay: Binding affinity towards rat 5-hydroxytryptamine 2A receptor was determined using [125I]- DOI as radioligand
Chain of 5-hydroxytryptamine receptor 2A (P14842 whole entry): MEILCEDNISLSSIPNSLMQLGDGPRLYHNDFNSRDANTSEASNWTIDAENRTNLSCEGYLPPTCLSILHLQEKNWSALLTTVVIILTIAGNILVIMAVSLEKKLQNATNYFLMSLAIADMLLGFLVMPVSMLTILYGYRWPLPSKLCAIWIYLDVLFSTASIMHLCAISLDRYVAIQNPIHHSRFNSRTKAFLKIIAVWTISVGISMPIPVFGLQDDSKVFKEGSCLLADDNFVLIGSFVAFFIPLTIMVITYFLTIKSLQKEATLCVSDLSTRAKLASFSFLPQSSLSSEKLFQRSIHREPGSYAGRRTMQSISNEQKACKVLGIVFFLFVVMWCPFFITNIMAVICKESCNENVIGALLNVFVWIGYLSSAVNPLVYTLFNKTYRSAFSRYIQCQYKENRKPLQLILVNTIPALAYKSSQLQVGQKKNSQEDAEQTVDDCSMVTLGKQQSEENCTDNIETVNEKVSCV

[3] = target: T2, 5-hydroxytryptamine receptor 2C (Rattus norvegicus, UniProt P08909); assay: Binding affinity towards rat 5-hydroxytryptamine 2C receptor was determined using [125I]- DOI as radioligand
T2 sequence (P08909 whole entry): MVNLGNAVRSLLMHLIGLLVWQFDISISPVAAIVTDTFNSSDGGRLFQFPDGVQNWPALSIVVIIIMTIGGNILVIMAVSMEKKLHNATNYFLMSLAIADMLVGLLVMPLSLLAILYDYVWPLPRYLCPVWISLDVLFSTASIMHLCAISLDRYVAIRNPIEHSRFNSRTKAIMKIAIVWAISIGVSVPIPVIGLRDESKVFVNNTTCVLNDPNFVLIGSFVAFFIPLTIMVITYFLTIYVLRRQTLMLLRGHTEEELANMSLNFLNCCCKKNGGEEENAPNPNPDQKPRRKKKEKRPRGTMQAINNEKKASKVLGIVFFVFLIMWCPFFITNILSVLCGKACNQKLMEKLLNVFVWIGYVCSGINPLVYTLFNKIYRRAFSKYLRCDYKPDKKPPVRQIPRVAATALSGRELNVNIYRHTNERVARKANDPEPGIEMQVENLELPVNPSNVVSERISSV

Rattus norvegicus [4] = assay: Percentage of animals failed to emit 50 responses within 5 min at 0.063 umol/kg in LY-293284-trained rats; assay type: functional
Rattus norvegicus [5] = assay: Percentage of animals failed to emit 50 responses within 5 min at 0.125 umol/kg in DOI-trained rats; assay type: functional
Rattus norvegicus [6] = assay: Percentage of animals failed to emit 50 responses within 5 min at 0.125 umol/kg in LSD-trained rats; assay type: functional
Rattus norvegicus [7] = assay: Percentage of animals failed to emit 50 responses within 5 min at 0.125 umol/kg in LY-293284-trained rats; assay type: functional
Rattus norvegicus [8] = assay: Percentage of animals failed to emit 50 responses within 5 min at 0.25 umol/kg in DOI-trained rats; assay type: functional
Rattus norvegicus [9] = assay: Percentage of animals failed to emit 50 responses within 5 min at 0.25 umol/kg in LSD-trained rats; assay type: functional
Rattus norvegicus [10] = assay: Percentage of animals failed to emit 50 responses within 5 min at 0.25 umol/kg in LY-293284-trained rats; assay type: functional
Rattus norvegicus [11] = assay: Percentage of animals failed to emit 50 responses within 5 min at 0.5 umol/kg in DOI-trained rats; assay type: functional
Rattus norvegicus [12] = assay: Percentage of animals failed to emit 50 responses within 5 min at 0.5 umol/kg in LSD-trained rats; assay type: functional
Rattus norvegicus [13] = assay: Percentage of animals failed to emit 50 responses within 5 min at 0.5 umol/kg in LY-293284-trained rats; assay type: functional
Rattus norvegicus [14] = assay: Percentage of animals failed to emit 50 responses within 5 min at 1 umol/kg in LSD-trained rats; assay type: functional
Rattus norvegicus [15] = assay: Percentage of animals failed to emit 50 responses within 5 min at 1 umol/kg in LY-293284-trained rats; assay type: functional
Rattus norvegicus [16] = assay: Percentage of animals tested that selected the training compound appropriate level at 0.063 umol/kg in LY-293284-trained rats; assay type: functional
Rattus norvegicus [17] = assay: Percentage of animals tested that selected the training compound appropriate level at 0.125 umol/kg in DOI-trained rats; assay type: functional
Rattus norvegicus [18] = assay: Percentage of animals tested that selected the training compound appropriate level at 0.125 umol/kg in LSD-trained rats; assay type: functional
Rattus norvegicus [19] = assay: Percentage of animals tested that selected the training compound appropriate level at 0.125 umol/kg in LY-293284-trained rats; assay type: functional
Rattus norvegicus [20] = assay: Percentage of animals tested that selected the training compound appropriate level at 0.25 umol/kg in DOI-trained rats; assay type: functional
Rattus norvegicus [21] = assay: Percentage of animals tested that selected the training compound appropriate level at 0.25 umol/kg in LSD-trained rats; assay type: functional
Rattus norvegicus [22] = assay: Percentage of animals tested that selected the training compound appropriate level at 0.25 umol/kg in LY-293284-trained rats; assay type: functional
Rattus norvegicus [23] = assay: Percentage of animals tested that selected the training compound appropriate level at 0.5 umol/kg in DOI-trained rats; assay type: functional
Rattus norvegicus [24] = assay: Percentage of animals tested that selected the training compound appropriate level at 0.5 umol/kg in LSD-trained rats; assay type: functional
Rattus norvegicus [25] = assay: Percentage of animals tested that selected the training compound appropriate level at 1 umol/kg in LSD-trained rats; assay type: functional
Rattus norvegicus [26] = assay: Percentage of animals tested that selected the training compound appropriate level at 1 umol/kg in LY-293284-trained rats; assay type: functional
Rattus norvegicus [27] = assay: Percentage of animals tested that selected the training compound appropriate level at 0.5 umol/kg in LY-293284-trained rats; assay type: functional
Rattus norvegicus [28] = species: Rattus norvegicus; assay: Effective concentration required to determined hallucinogen-like activity in LSD-trained rats; assay type: functional

For `COc1ccc2[nH]cc(CCN(C)C)c2c1F`, the Ki [1] was 0.23 nM.
In the case of `COc1ccc2[nH]cc(CCN3CCCC3)c2c1F`, the Ki [1] is reported as 0.12 nM, the Ki [2] is reported as 130 nM and the Ki [3] is reported as 140 nM. The D (Rattus norvegicus [4]) was 0%, the D (Rattus norvegicus [5]) was 22% and the D (Rattus norvegicus [6]) was 10%. For the same compound, the D (Rattus norvegicus [7]) was 10%, the D (Rattus norvegicus [8]) was 30% and the D (Rattus norvegicus [9]) was 53%. The D (Rattus norvegicus [10]) was 12.5%, the D (Rattus norvegicus [11]) was 50% and the D (Rattus norvegicus [12]) was 60%. The D (Rattus norvegicus [13]) was 66.6%, the D (Rattus norvegicus [14]) was 78% and the D (Rattus norvegicus [15]) was 90%. It also gave an SDL (Rattus norvegicus [16]) of 25%, an SDL (Rattus norvegicus [17]) of 0% and an SDL (Rattus norvegicus [18]) of 11%. For the same compound, the SDL (Rattus norvegicus [19]) was 66.6%, the SDL (Rattus norvegicus [20]) was 29% and the SDL (Rattus norvegicus [21]) was 57%. For the same compound, the SDL (Rattus norvegicus [22]) was 100%, the SDL (Rattus norvegicus [23]) was 50% and the SDL (Rattus norvegicus [24]) was 75%. It also gave an SDL (Rattus norvegicus [25]) of 67%, an SDL (Rattus norvegicus [26]) of 100% and an SDL (Rattus norvegicus [27]) of 100%.
Compound `COc1cc(CC(C)N)c(OC)cc1I` (stereo unspecified) has an ED50 (Rattus norvegicus [28]) of 0.29 µmol/kg.
`CCCN(CCC)C1CCc2cccc(O)c2C1` (stereo unspecified) [8-OH-DPAT] was tested, and the ED50 (Rattus norvegicus [28]) was 0.099 µmol/kg.
`CCN(CC)C(=O)[C@@H]1C=C2c3cccc4[nH]cc(c34)C[C@H]2N(C)C1` [LYSERGIDE] showed an ED50 (Rattus norvegicus [28]) of 0.026 µmol/kg.
